# System: male C57Bl6J mice
# Assay: Metabolic efficiency
# Type: in vivo
# Details: insulin 20 nmol/kg daily i.p., n=8
substance,measurement,value
insulin,nocturnal chow intake,slight decrease
